The structures appear in SMILES notation.

In the assay the target is T1, menin-MLL interaction (Homo sapiens, UniProt O00255).
T1 sequence (O00255 1-610): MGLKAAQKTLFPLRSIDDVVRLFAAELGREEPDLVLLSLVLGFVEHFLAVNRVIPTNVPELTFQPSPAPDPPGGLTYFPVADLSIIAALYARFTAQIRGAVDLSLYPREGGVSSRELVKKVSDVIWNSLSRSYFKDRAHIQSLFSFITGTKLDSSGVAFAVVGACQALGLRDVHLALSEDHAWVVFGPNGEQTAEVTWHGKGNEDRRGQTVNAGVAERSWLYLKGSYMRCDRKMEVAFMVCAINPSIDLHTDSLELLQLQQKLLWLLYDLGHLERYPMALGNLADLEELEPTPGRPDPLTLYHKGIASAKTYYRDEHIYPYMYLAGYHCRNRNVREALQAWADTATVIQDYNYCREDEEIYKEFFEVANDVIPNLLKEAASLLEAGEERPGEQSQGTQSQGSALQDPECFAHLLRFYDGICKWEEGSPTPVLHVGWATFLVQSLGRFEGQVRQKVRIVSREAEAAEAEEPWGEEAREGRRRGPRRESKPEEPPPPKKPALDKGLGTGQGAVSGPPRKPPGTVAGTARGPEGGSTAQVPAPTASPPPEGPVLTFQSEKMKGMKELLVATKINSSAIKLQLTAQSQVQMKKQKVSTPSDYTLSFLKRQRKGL
Nature of the assay: biochemical.
Description: Compounds that inhibit the interaction decrease the fluorescence anisotropy which is being used as a read-out for compound screening and for IC50 determination.
In general, IC50 refers to the point on the concentration scale where inhibition reaches its midpoint. Low values mean greater potency in that assay, high ones weaker potency in that assay. `CC1(C)CN=C(C2C[C@@H]3C[C@H]2CN3c2ncnc3sc(CC(F)(F)F)cc23)S1` (mixture of isomers) [Compound 14]: the IC50 was in the range of 100 to 500 nM.

Consider `O[C@@H]1CN(Cc2ccccc2)CC[C@H]1Nc1ncnc2sc(CC(F)(F)F)cc12` (relative stereo) [Compound 165], for which the IC50 was 100 to 500 nM.

As for `CC1(C)CN=C(N2C[C@@H]3CC[C@H]2CN3c2ncnc3sc(CC(F)(F)F)cc23)S1` [Compound 2], the IC50 was under 100 nM.

With `FC(F)(F)Cc1cc2c(N3CCN(c4nnc(C5CC5)s4)CC3)ncnc2s1` [Compound 3], the IC50 lay in the range of 100 to 500 nM.

For `NCc1nnc(N2CCN(c3ncnc4sc(CC(F)(F)F)cc34)CC2)s1` [Compound 4], the IC50 lay in the range of 100 to 500 nM.

The compound `FC(F)(F)Cc1sc2ncnc(N3CCN(c4nnc(C(F)(F)F)s4)CC3)c2c1I` [Compound 6] had an IC50 of 100 to 500 nM.

Turning to `Cc1c(CC(F)(F)F)sc2ncnc(N3CCN(c4nnc(C(F)(F)F)s4)CC3)c12` [Compound 7], the IC50 lay within 100 to 500 nM.

`FC(F)(F)Cc1cc2c(N3CCN(c4nnc(CC(F)(F)F)s4)CC3)ncnc2s1` [Compound 8]: the IC50 fell in the range of 100 to 500 nM.

On to `FC(F)(F)Cc1cc2c(N3CCN(CC4CCCCC4)CC3)ncnc2s1` [Compound 9], for which the IC50 was in the range of 100 to 500 nM.

Regarding `FC(F)(F)Cc1cc2c(N3CCN(C4CCCCC4)CC3)ncnc2s1` [Compound 11], the IC50 lay in the range of 100 to 500 nM.

Compound `COc1ccc(CCCc2nnc(N3CCN(c4ncnc5sc(CC(F)(F)F)cc45)CC3)s2)cc1` [Compound 12] registered an IC50 of 100 to 500 nM.

`N#Cc1ccc(N2CCC(N3CCN(c4ncnc5sc(CC(F)(F)F)cc45)CC3)CC2)cc1` [Compound 13]: the IC50 is 100 to 500 nM.

`FC(F)(F)Cc1cc2c(N3CCN(c4nnc(CCCC5CCCCC5)s4)CC3)ncnc2s1` [Compound 17] returned an IC50 of 500 to 2000 nM.

`FC(F)(F)CCc1nnc(N2CCN(c3ncnc4sc(CC(F)(F)F)cc34)CC2)s1` [Compound 18] returned an IC50 of 500 to 2000 nM.

`FC(F)(F)Cc1cc2c(N3CCN(c4nnc(CC5CCCC5)s4)CC3)ncnc2s1` [Compound 19] returned an IC50 of 500 to 2000 nM.

Turning to `FC(F)(F)Cc1cc2c(N3CCN(c4nnc(C(F)(F)F)o4)CC3)ncnc2s1` [Compound 20], the concentration for half-maximal inhibition (IC50) lay within 500 to 2000 nM.

`FC(c1cc2c(N3CCN(c4nnc(C(F)(F)F)s4)CC3)ncnc2s1)C(F)(F)F` (stereo not drawn) [Compound 21]: the IC50 lay in the range of 500 to 2000 nM.

Regarding `CC1(C)CN=C(N2CCN(c3ncnc4sc(CCCC(F)(F)F)cc34)CC2)S1` [Compound 22], the half-inhibitory concentration (IC50) fell in the range of 500 to 2000 nM.

The compound `OC(c1cc2c(N3CCN(c4nnc(C(F)(F)F)s4)CC3)ncnc2s1)C(F)(F)F` (stereo not drawn) [Compound 23] returned an IC50 of 500 to 2000 nM.

The compound `FC(F)(F)c1nnc(N2CCN(c3ncnc4sc(C(F)(F)C(F)(F)F)cc34)CC2)s1` [Compound 24] yielded an IC50 of 500 to 2000 nM.

In turn, `COCCCc1cc2c(N3CCN(C4=NCC(C)(C)S4)CC3)ncnc2s1` [Compound 25] registered an IC50 of 500 to 2000 nM.

As for `CN1CCC(N2CCN(c3ncnc4sc(CC(F)(F)F)cc34)CC2)CC1` [Compound 27], the IC50 lay in the range of 500 to 2000 nM.

The compound `FC(F)(F)c1nnc(N2CCN(c3ncnc4sc(C5CC5)cc34)CC2)s1` [Compound 28] registered a 50% inhibitory concentration (IC50) of 500 to 2000 nM.

On to `CC(C)c1cc2c(N3CCN(C4=NCC(C)(C)S4)CC3)ncnc2s1` [Compound 30], for which the IC50 is 500 to 2000 nM.

Turning to `CCCc1cc2c(N3CCN(C4CCCCCC4)CC3)ncnc2s1` [Compound 31], the IC50 lay within 500 to 2000 nM.

Consider `CC(C)c1cc2c(N3CCN(c4nnc(C(F)(F)F)s4)CC3)ncnc2s1` [Compound 32], for which the IC50 lay in the range of 500 to 2000 nM.

Consider `CCCc1cc2c(N3CCN(c4nnc(C(F)(F)F)s4)CC3)ncnc2s1` [Compound 33], for which the IC50 fell in the range of 500 to 2000 nM.

`CCCCc1cc2c(N3CCN(c4nnc(C(F)(F)F)s4)CC3)ncnc2s1` [Compound 34] registered an IC50 of 500 to 2000 nM.

Compound `CC1(C)CN=C(N2CCN(c3ncnc4sc(CCc5ccccc5)cc34)CC2)S1` [Compound 35] had an IC50 of 500 to 2000 nM.

Compound `CC1(C)CN=C(N2CCN(c3ncnc4sc(CCC5CC5)cc34)CC2)S1` [Compound 36] returned an IC50 of 500 to 2000 nM.

`CC1(C)CN=C(N2CCN(c3ncnc4sc(CCCc5ccccc5)cc34)CC2)S1` [Compound 37] returned an IC50 of 500 to 2000 nM.

In turn, `CC(c1cc2c(N3CCN(C4=NCC(C)(C)S4)CC3)ncnc2s1)C(F)(F)F` (stereo not drawn) [Compound 38] had an IC50 of 500 to 2000 nM.

Compound `FC(F)(F)Cc1cc2c(N3CCN(c4nnc(CC5CCCCC5)s4)CC3)ncnc2s1` [Compound 39] returned an IC50 of 500 to 2000 nM.

In turn, `CC1(C)CN=C(N2CCN(c3ncnc4sc(CCCCc5ccccc5)cc34)CC2)S1` [Compound 40] registered an IC50 of 500 to 2000 nM.

Regarding `FC(F)(F)Cc1cc2c(N3CCN(c4nnc(CCCc5ccccc5)s4)CC3)ncnc2s1` [Compound 41], the IC50 fell in the range of 500 to 2000 nM.

Turning to `FC(F)(F)Cc1cc2c(N3CCN(c4nnc(CCc5ccccc5)s4)CC3)ncnc2s1` [Compound 42], the IC50 lay within 500 to 2000 nM.

`CS(=O)(=O)Cc1ccc(CC(=O)N2CCN(c3ncnc4sc(CC(F)(F)F)cc34)CC2)cc1` [Compound 43] registered an IC50 of under 100 nM.

Compound `NS(=O)(=O)Cc1ccc(CC(=O)N2CCN(c3ncnc4sc(CC(F)(F)F)cc34)CC2)cc1` [Compound 44, (4-(2-oxo-2-(4-(6-(2,2,2-trifluoroethyl)thieno[2,3-d]pyrimidin-4-yl)piperazin-1-yl)ethyl)phenyl)methanesulfonamide] yielded a concentration for half-maximal inhibition (IC50) of under 100 nM.

Turning to `CS(=O)(=O)Nc1ccc(CC(=O)N2CCN(c3ncnc4sc(CC(F)(F)F)cc34)CC2)cc1` [Compound 45], the 50% inhibitory concentration (IC50) was under 100 nM.

With `CN(c1ccc(CC(=O)N2CCN(c3ncnc4sc(CC(F)(F)F)cc34)CC2)cc1)S(C)(=O)=O` [Compound 46], the IC50 was under 100 nM.

Consider `NS(=O)(=O)Nc1ccc(CC(=O)N2CCN(c3ncnc4sc(CC(F)(F)F)cc34)CC2)cc1` [Compound 47], for which the IC50 was under 100 nM.

Consider `CNS(=O)(=O)Nc1ccc(CC(=O)N2CCN(c3ncnc4sc(CC(F)(F)F)cc34)CC2)cc1` [Compound 48], for which the IC50 is under 100 nM.

For `CCS(=O)(=O)Nc1ccc(CC(=O)N2CCN(c3ncnc4sc(CC(F)(F)F)cc34)CC2)cc1` [Compound 49], the IC50 was under 100 nM.

As to `NCCS(=O)(=O)Nc1ccc(CC(=O)N2CCN(c3ncnc4sc(CC(F)(F)F)cc34)CC2)cc1` [Compound 50], the IC50 was under 100 nM.

Regarding `CN(C)S(=O)(=O)Nc1ccc(CC(=O)N2CCN(c3ncnc4sc(CC(F)(F)F)cc34)CC2)cc1` [Compound 51], the IC50 was under 100 nM.

`O=C(Cc1ccc(NS(=O)(=O)N2CCCCC2)cc1)N1CCN(c2ncnc3sc(CC(F)(F)F)cc23)CC1` [Compound 52] returned an IC50 of under 100 nM.

Turning to `O=C(Cc1ccc(NS(=O)(=O)N2CCOCC2)cc1)N1CCN(c2ncnc3sc(CC(F)(F)F)cc23)CC1` [Compound 53], the IC50 is under 100 nM.

As to `CCCCS(=O)(=O)Nc1ccc(CC(=O)N2CCN(c3ncnc4sc(CC(F)(F)F)cc34)CC2)cc1` [Compound 54], the IC50 was under 100 nM.

`CN1CCN(S(=O)(=O)Nc2ccc(CC(=O)N3CCN(c4ncnc5sc(CC(F)(F)F)cc45)CC3)cc2)CC1` [Compound 55] displayed an IC50 of under 100 nM.

Consider `CC(C)S(=O)(=O)Nc1ccc(CC(=O)N2CCN(c3ncnc4sc(CC(F)(F)F)cc34)CC2)cc1` [Compound 56], for which the IC50 was under 100 nM.

Compound `CC(=O)NCCS(=O)(=O)Nc1ccc(CC(=O)N2CCN(c3ncnc4sc(CC(F)(F)F)cc34)CC2)cc1` [Compound 57] returned an IC50 of under 100 nM.
